Measured values from US20060073156A1, “Fosfomycin and n-acetylcysteine for the treatment of biofilms caused by escheric ia coli and other pathogens of the urinary tract” (ZAMBON GROUP S.P.A., priority 2002, published 2006).
Several values for one entry are separate records, joined by “and”; a condition that tells them apart may be missing. Equal values may be shown once. Read-outs that look alike come from different tables or passages of the source.

Assays:
[1] = system: biofilm produced by Escherichia coli; assay: Disruption of biofilms: residual quantity of biofilm after treatment of initial (5 hours) and fully consolidated (48 hours) biofilms; assay type: cell-based; conditions: NAC alone; for reduction of mature biofilms: mature (48 hours) biofilms
Procedure: (§1) The effects of NAC and fosfomycin on the biofilm produced by Escherichia coli have been evaluated on four strains designated 169, 255, 1263 and 1293, from the Microbiological Collection of the Genua University.
(§2) Formation of the biofilms was measured spectrophotometrically in U-bottom polystyrene microplates (Corning Incorporated, NY).
(§3) The biofilm adhering to the walls of the microplates was collected via washing with PBS, suspended in 10% sarbosyl and measured spectrophotometrically at 492 nm.
The same method was used for calculating the residual quantity of biofilm after treatment with NAC and fosfomycin, alone or associated, on Escherichia coli. For this purpose, biofilms with two different degrees of maturity: initial (5 hours) and fully consolidated (48 hours) were exposed to appropriate concentrations of NAC (from 8 mg/ml to 0.007 mg/ml) with addition of fosfomycin at the concentrations attainable in vivo in the urine.

[2] = system: biofilm produced by Escherichia coli; assay: Formation of biofilm, Crystal Violet staining in polystyrene microplates, measured at 492 nm; assay type: cell-based; conditions: various concentrations of NAC added to the cultures; three strains out of four
Procedure: as §1, §2
In more detail, the effect of NAC on the formation of biofilms was evaluated as follows: overnight cultures in Tryptic Soy Broth (TSB) with addition of glucose (0.25%). (TSBG) were diluted 1:100 in TSBG. These suspensions (100 μl each) were added to suitable dilutions of NAC at concentrations ranging from 8 mg/ml to 0.007 mg/ml respectively. After incubation at 37° C. for 24 hours, the microplates were washed three times with 10 mM phosphate buffer pH 7.4 (PBS), treated with Bouin fixative and then stained with Crystal Violet (0.01%).
as §3

[3] = system: biofilms of P. aeruginosa; conditions: Antimicrob. Agents Chemother., 35, 1258, (1991); cited from earlier work
Escherichia coli = assay: Bacterial growth of cultures with NAC added; assay type: cell-based; conditions: various concentrations of NAC added to the cultures; all E. coli strains tested
S. epidermidis = conditions: J. Ant. Chem., 39, 643, (1997); cited from earlier work
[4] = system: Escherichia coli cells of the biofilm; assay: Bacterial viability of biofilm cells: sonication, seeding, count of viable units (CFU/ml); assay type: cell-based; conditions: for inhibition at 2000 µg/mL: Escherichia coli, fosfomycin 2000 mg/l alone, read-out: reductions in viable units
Procedure: as §1
At the same time the biofilms treated in this way were submitted to sonication in order to disperse the cells that were still adhering, which were seeded on rich medium after suitable dilution for calculating the viable units that survived the various treatments.

Compound | reduction of initial biofilms ([1]; initial (5 hours) biofilms, strains not named) | reduction of mature biofilms ([1]; Escherichia coli 169) | reduction of mature biofilms ([1]; three strains out of four) | reductions in biofilm (formation) [2] | ability to disrupt biofilms [3] | changes in bacterial growth (Escherichia coli) | inhibition of biofilm formation (S. epidermidis) | inhibition at 2000 µg/mL ([4]; fully consolidated biofilms) | inhibition at 2000 µg/mL ([4]; initial biofilms) | reductions in CFU/ml ([4]; fosfomycin 128 mg/l alone)
CC(=O)N[C@@H](CS)C(=O)O [NAC, N-acetylcysteine] | 51.7% and 64.0% and 58.4% | 25.2% | 64.3% and 60.2% and 67.7% | greater than 50% | ability to disrupt biofilms | did not cause appreciable changes | inhibit their formation |  |  | 
C[C@@H]1O[C@@H]1P(=O)(O)O [fosfomycin, Fosfomycin] |  |  |  |  |  |  |  | 36 to 85.7% | 98 to 99.5% | less than 1 logarithm
